# Reference: patent publication US8124032B2, “Microfluidic device and method of using same” (priority 2004, dated 2012)
# System: single yeast cell (intracellular carboxylesterase, efflux process)
# Assay: Single-cell FDA metabolism (influx/hydrolysis/efflux), curve fitting to enzymatic model
# Assay type: cell-based, Sacchomyces cereviase
# Description: In one of the embodiments of the invention, to study a model of a yeast metabolic process using the microfluidic device of the invention, the inventors selected a cell-permeable fluorogenic substrate, fluorescein diacetate (FDA), which is normally used to determine cell viability^42. After influx of FDA into a yeast cell, the intracellular enzyme carboxylesterase^43 hydrolyzes FDA to fluorescein, which will then be excreted from the cell (through efflux).
# To examine the cells in an embodiment of the microfluidic device, the device was placed on the translation stage of an inverted microscope and simultaneous optical observation and fluorescent measurement were carried out. To carry out fluorescent intensity calibration in the microfluidic device, polystyrene beads (6 μm diameter, InSpeck™ Green, Molecular Probes) were used. Three-dimensional liquid flow control was accomplished by either electric or fluid potential.
# With electric potential control, only low-conducting liquids, such as G7, H4 could be delivered to the cells (cell 3, 4, 5). The two buffers were G7 (28.5 mM HEPES, 256 mM D-glucose, pH=7.3) and H4 (285 mM HEPES, pH=4.3). 12 μM FDA was used, where appropriate. With fluid potential (<1 mm) control, highly conducting liquids such as YPD, NaCl, KCl, EDTA could also be used.
# FIG. 16I depicts the schematic diagram of a yeast cell with a daughter bud, showing the relationship between the concentrations of extracellular FDA (A), intracellular FDA (B) and fluorescein (C) as a function of time (t). The kinetic model can be described by several equations. Equation (1) is the material balance of FDA (B) in the cell. Equation (2) is the material balance of fluorescein (C) in the cell. Equations (1) and (2) were derived from first principles as discussed below.
# [formula] The notations are A: extracellular FDA (μM); B: intracellular FDA (μM); C: intracellular fluorescein (μM); S: cell surface area (μm^2) and V: cell volume (μm^3), as calculated from the diameter (μm) of the cell (D1) and its bud (D2); kb: transport coefficient (μm s^−1); Vm (μM s^−1) and Km (μM): Michaelis-Menten kinetic parameters for the carboxylesterase; Ve (μM μm s^−1) and Ke (μM): Michaelis-Menten kinetic parameters for the efflux process.
# [formula] Equation (3) represents the increasing rate of the carboxylesterase activity as indicated by the Michaelis-Menten parameter Vm, where k is the rate constant (μM s^−2). Derivation for Equation (1): Material Balance of FDA in the Cell
# Here, T0, T1 and T2 are the time at which influx, hydrolysis and efflux start, respectively.
# In the self-control mode, when influx is not allowed, kb=0. […] During hydrolysis (T1 to T2), there is no influx and efflux, i.e. kb=0, Vm>0, and Ve=0. Finally, during efflux (after T2), there is no influx and hydrolysis, i.e. kb=0, Vm=0, and Ve>0. In the lost-control mode, kb>0, Vm>0, and Ve>0. In the “death” mode, kb=0, Vm=0, and Ve=0. In this case, the cell appears dead when there is no change in the concentration of cellular fluorescein.
# Curve-fitting experiments were also carried out for two other single yeast cells under various stimuli, see FIG. 17.
# [1] = cell 3, T0 2140 s, self-control mode
# [2] = cell 4, T0 2560 s, self-control mode
# [3] = cell 4, T0 4950 s, self-control mode
# [4] = cell 4, T0 6590 s, self-control mode
# [5] = cell 4, T0 8627 s, lost-control mode
# [6] = cell 5, T0 208 s, self-control mode
# [7] = cell 5, T0 1030 s, self-control mode
# [8] = cell 5, T0 2026 s, self-control mode
# [9] = cell 5, T0 3300 s, self-control mode
# [10] = cell 5, T0 5600 s, lost-control mode
# [11] = cell ‡ (another single yeast cell similar to cell 3), T0 2200 s, self-control mode
smiles,measurement,setting,value
"CC(=O)Oc1ccc2c(c1)Oc1cc(OC(C)=O)ccc1C21OC(=O)c2ccccc21 [FDA, fluorescein diacetate]","Vm0 (initial value of Vm, carboxylesterase)",[1],0.0012 µM/s
same,k (rate constant of increase of Vm),[1],4 10^−6 μM s^−2
same,"Vm0 (initial value of Vm, carboxylesterase)",[2],0.002 µM/s
same,k (rate constant of increase of Vm),[2],25 10^−6 μM s^−2
same,"Vm0 (initial value of Vm, carboxylesterase)",[3],0.01 µM/s
same,k (rate constant of increase of Vm),[3],25 10^−6 μM s^−2
same,"Vm0 (initial value of Vm, carboxylesterase)",[4],0.04 µM/s
same,k (rate constant of increase of Vm),[4],0 10^−6 μM s^−2
same,"Vm0 (initial value of Vm, carboxylesterase)",[5],0.009 µM/s
same,k (rate constant of increase of Vm),[5],0 10^−6 μM s^−2
same,"Vm0 (initial value of Vm, carboxylesterase)",[6],0.02 µM/s
same,k (rate constant of increase of Vm),[6],0 10^−6 μM s^−2
same,"Vm0 (initial value of Vm, carboxylesterase)",[7],0.005 µM/s
same,k (rate constant of increase of Vm),[7],0 10^−6 μM s^−2
same,"Vm0 (initial value of Vm, carboxylesterase)",[8],0.0018 µM/s
same,k (rate constant of increase of Vm),[8],2 10^−6 μM s^−2
same,"Vm0 (initial value of Vm, carboxylesterase)",[9],0.004 µM/s
same,k (rate constant of increase of Vm),[9],15 10^−6 μM s^−2
same,"Vm0 (initial value of Vm, carboxylesterase)",[10],0.015 µM/s
same,k (rate constant of increase of Vm),[10],0 10^−6 μM s^−2
same,"Vm0 (initial value of Vm, carboxylesterase)",[11],0.007 µM/s
same,k (rate constant of increase of Vm),[11],4 10^−6 μM s^−2
